We go through 14 compounds from patent publication US20250163052A1, “cGAS INHIBITORS AND USES THEREOF” (Cornell University, priority 2022, published 2025).

One data set deals with NFkB-SEAP. Nature of the data set: THP1-Dual cells transfected with DNA, nfkb expression (Quantiblue). The class given is cell-based. The conditions noted are these: Homo sapiens; for inhibition at 10 µM: THP-1, 10 μM; for inhibition at 30 µM: THP-1, 30 μM. The protocol:
(§1) Evaluation of active cGAS inhibitors in THP1 cells (Table 3). Cellular activity of all compounds (in Table 3) was determined using THP1-Dual™ cells as described (Lama et. al., 2019). THP1-Dual™ cells (Invivogen) (50000 cells in 100 μl media) were seeded into each well of a 96-well plate and treated with compounds at various dilution for 4 hours. Subsequently, cells were transfected with DNA (2 ug/ml) and lipofectamine and incubate the cells were incubated overnight. Ifnb expression was measured in cell supernatant using Quantiluc, nfkb expression was determined using Quantiblue, and cell viability using Promega® CellTiter-Glo®.

In another data set the test system is IFNB. As to the kind of experiment: THP1-Dual cells transfected with DNA, Ifnb expression (Quantiluc). The data set is classed as cell-based. The conditions noted are these: Homo sapiens; for inhibition at 10 µM: THP-1, 10 μM; for inhibition at 30 µM: THP-1, 30 μM. Here is the method:
as §1

The next data set addresses h-cGAS (Homo sapiens, UniProt Q8N884). Nature of the data set: Cell-free human cGAS enzyme inhibition assay (ATP depletion, Kinase-Glo Max). The class given is biochemical. Particulars: 3 h; for inhibition at 1 µM: read-out: h-cGAS, conc. 1 μM; for inhibition at 10 µM: read-out: h-cGAS, conc. 10 μM. Here is the method:
(§2) Cell-free mouse and human cGAS enzyme inhibition assay (Table 2). Activity of all compounds (in Table 1) against m-cGAS (30 nM) and or h-cGAS, (100 nM) was determined by measuring the conversion of ATP and GTP (100 μM each) to cGAMP in the presence of dsDNA (5 ug/mL) in a reaction buffer composed of Tris-HCl (20 mM, pH7.4), NaCl (150 mM), MnCl2 (0.2 mM, h-cGAS) or MgCl2 (5 mM, m-cGAS) and Tween-20 (0.01%), and the remaining ATP concentration using Kinase-Glo®Max Luminescent Kinase Assay (Promega, Madison, WI), as described (Lama, et. al., 2019). Briefly, 10 μl of a master mix of 0.4 mM ATP, 0.4 mM GTP, 0.02 mg/mL dsDNA in the reaction buffer supplemented with 2 mM DTT was added to reaction wells containing TDI-6570 or TDI-8246 (2× of the desired concentration) in the same buffer ([…]) using a Thermo 8-channel Multidrop Combi dispenser. Next, 10 μl of a 4×m-cGAS (0.120 μM) or h-cGAS (0.4 μM) solution in the reaction buffer supplemented with 2 mM DTT was added to appropriate wells. Similar sets of reactions without cGAS or the inhibitor was set by adding the buffer alone. The reactions with the plates sealed were incubated at 37° C. (1 hour for m-cGAS and 3 hours for h-cGAS) and stopped by addition of 40 μl of the Kinase-Glo®Max. The luminescence was recorded in relative light units (RLUs) using a Biotek Synergy H1 Hybrid plate reader (BioTek, Winooski, VT). […] All reactions were run in triplicates and calculated using GraphPad Prism 9. The values represent mean IC50±S.D.

The next data set addresses m-cGAS (Mus musculus, UniProt Q8C6L5). As to the kind of experiment: Cell-free mouse cGAS enzyme inhibition assay (ATP depletion, Kinase-Glo Max). The class given is biochemical. Particulars: 1 h; for inhibition at 10 µM: read-out: m-cGAS, conc. 10 μM; for inhibition at 1 µM: read-out: m-cGAS, conc. 1 μM. The protocol:
as §2

In the next data set the test system is THP1 cells. As to the kind of experiment: THP1-Dual cells, cell viability (CellTiter-Glo). The class given is cell-based. The protocol: as §1

h-cGAS, sequence (Q8N884 whole entry): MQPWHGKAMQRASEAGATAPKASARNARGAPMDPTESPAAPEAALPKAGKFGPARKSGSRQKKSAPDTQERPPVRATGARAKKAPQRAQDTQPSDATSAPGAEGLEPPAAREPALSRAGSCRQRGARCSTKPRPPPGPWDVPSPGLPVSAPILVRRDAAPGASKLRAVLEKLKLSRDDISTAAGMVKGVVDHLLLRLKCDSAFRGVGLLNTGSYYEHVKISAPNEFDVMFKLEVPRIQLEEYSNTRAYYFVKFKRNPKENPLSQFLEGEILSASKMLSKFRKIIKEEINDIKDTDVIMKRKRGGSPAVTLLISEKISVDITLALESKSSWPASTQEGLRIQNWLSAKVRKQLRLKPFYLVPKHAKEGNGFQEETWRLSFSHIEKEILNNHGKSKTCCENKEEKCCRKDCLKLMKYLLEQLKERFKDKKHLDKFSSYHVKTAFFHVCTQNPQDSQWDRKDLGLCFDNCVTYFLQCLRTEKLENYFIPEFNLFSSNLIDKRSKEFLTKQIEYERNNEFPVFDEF
m-cGAS, sequence (Q8C6L5 whole entry): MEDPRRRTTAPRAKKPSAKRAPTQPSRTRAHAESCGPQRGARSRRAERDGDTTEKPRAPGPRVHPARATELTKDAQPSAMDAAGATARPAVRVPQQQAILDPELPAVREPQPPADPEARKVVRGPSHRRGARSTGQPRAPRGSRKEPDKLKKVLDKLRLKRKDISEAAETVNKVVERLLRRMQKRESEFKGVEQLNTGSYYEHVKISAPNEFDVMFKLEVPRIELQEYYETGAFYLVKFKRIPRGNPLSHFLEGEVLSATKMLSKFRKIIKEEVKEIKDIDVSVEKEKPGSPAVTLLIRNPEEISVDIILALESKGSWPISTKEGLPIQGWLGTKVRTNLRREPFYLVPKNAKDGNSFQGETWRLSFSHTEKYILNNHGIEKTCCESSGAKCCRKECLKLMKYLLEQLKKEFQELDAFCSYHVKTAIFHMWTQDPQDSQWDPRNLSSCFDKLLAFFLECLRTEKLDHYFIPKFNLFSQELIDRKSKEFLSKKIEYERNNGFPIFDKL

On to `Cn1c2c(c3c(O)cc(Cl)c(F)c31)CN(C(=O)CO)CC2` [Compound 1, 1-(7-chloro-6-fluoro-9-hydroxy-5-methyl-3,4-dihydro-1H-pyrido[4,3-b]indol-2-yl)-2-hydroxy-ethanone], for which, in the data set with NFkB-SEAP, the inhibition at 10 µM is < 24% and the inhibition at 30 µM is < 24%. Also, in the data set with IFNB, the inhibition at 10 µM was < 24% and the inhibition at 30 µM was < 24%. On h-cGAS, the inhibition at 1 µM lay in the range of 0 to 24% and the inhibition at 10 µM was 75 to 100%. For the same compound, the inhibition at 10 µM on m-cGAS was 75 to 100%. In addition, in the data set with THP1 cells, the “Cell viability 10 μM” value is “+++ (+, ++, and +++ mean the compound respectively shows 25-49%; 50-74%; or 75-100% viability to cells)”; the “Cell viability 30 μM” value is “+++ (+, ++, and +++ mean the compound respectively shows 25-49%; 50-74%; or 75-100% viability to cells)”.
As to `O=C(CO)N1CCc2[nH]c3c(Cl)c(Cl)cc(O)c3c2C1` [Compound 3], the inhibition at 10 µM with NFkB-SEAP was < 24%; in the data set on IFNB, < 24%; at h-cGAS, 75 to 100%; at m-cGAS, 75 to 100%. In addition, the inhibition at 30 µM in the data set on NFkB-SEAP was < 24%. In addition, the inhibition at 1 µM at h-cGAS is 50 to 74%; on m-cGAS, 75 to 100%. Also, in the data set on THP1 cells, the “Cell viability 10 μM” value was “+++ (+, ++, and +++ mean the compound respectively shows 25-49%; 50-74%; or 75-100% viability to cells)”. Further, the “Cell viability 30 μM” value in the data set on THP1 cells is “+++ (+, ++, and +++ mean the compound respectively shows 25-49%; 50-74%; or 75-100% viability to cells)”.
`CC(O)C(=O)N1CCc2c(c3c(-c4ccn(C)n4)cc(Cl)c(Cl)c3n2C)C1` (stereo not shown) [Compound 4]: in the data set with NFkB-SEAP, the inhibition at 10 µM was < 24% and the inhibition at 30 µM was 25 to 49%. Besides, in the data set on IFNB, the inhibition at 10 µM was < 24% and the inhibition at 30 µM lay in the range of 50 to 74%. For the same compound, at h-cGAS, the inhibition at 1 µM lay within 25 to 49% and the inhibition at 10 µM fell in the range of 75 to 100%. Moreover, the inhibition at 10 µM on m-cGAS is 0 to 24%. For the same compound, in the data set with THP1 cells, the “Cell viability 10 μM” value is “+++ (+, ++, and +++ mean the compound respectively shows 25-49%; 50-74%; or 75-100% viability to cells)”; the “Cell viability 30 μM” value was “+++ (+, ++, and +++ mean the compound respectively shows 25-49%; 50-74%; or 75-100% viability to cells)”.
As to `Cn1ccc(-c2cc(Cl)c(Cl)c3c2c2c(n3C)CCN(C(=O)C(C)(C)O)C2)n1` [Compound 5], the inhibition at 10 µM was < 24% in the data set on NFkB-SEAP, < 24% with IFNB, 75 to 100% on h-cGAS and 0 to 24% at m-cGAS. The inhibition at 30 µM with NFkB-SEAP and in the data set on IFNB was < 24% each time. Moreover, at h-cGAS, the inhibition at 1 µM was in the range of 25 to 49%. In addition, the “Cell viability 10 μM” value in the data set on THP1 cells was “+++ (+, ++, and +++ mean the compound respectively shows 25-49%; 50-74%; or 75-100% viability to cells)”. Moreover, the “Cell viability 30 μM” value in the data set on THP1 cells is “+++ (+, ++, and +++ mean the compound respectively shows 25-49%; 50-74%; or 75-100% viability to cells)”.
With `Nc1ccc(-c2cc(Cl)c(Cl)c3oc4c(c23)CN(C(=O)CO)CC4)cn1` [Compound 26], in the data set with IFNB, the inhibition at 10 µM is 50 to 74% and the inhibition at 30 µM is 75 to 100%. Moreover, at h-cGAS, the inhibition at 1 µM is 50 to 74% and the inhibition at 10 µM was 75 to 100%. For the same compound, on m-cGAS, the inhibition at 10 µM is 25 to 49%. In addition, in the data set with THP1 cells, the “Cell viability 10 μM” value is “+++ (+, ++, and +++ mean the compound respectively shows 25-49%; 50-74%; or 75-100% viability to cells)”; the “Cell viability 30 μM” value is “+++ (+, ++, and +++ mean the compound respectively shows 25-49%; 50-74%; or 75-100% viability to cells)”.
In the case of `Cn1ccc(-c2cc(Cl)c(Cl)c3sc4c(c23)CN(C(=O)CO)CC4)n1` [Compound 46], in the data set with IFNB, the inhibition at 10 µM lay in the range of 25 to 49% and the inhibition at 30 µM lay in the range of 75 to 100%. For the same compound, at h-cGAS, the inhibition at 1 µM lay in the range of 50 to 74% and the inhibition at 10 µM was 75 to 100%. Also, at m-cGAS, the inhibition at 10 µM lay in the range of 0 to 24%. Further, in the data set with THP1 cells, the “Cell viability 10 μM” value was “+++ (+, ++, and +++ mean the compound respectively shows 25-49%; 50-74%; or 75-100% viability to cells)”; the “Cell viability 30 μM” value was “++ (+, ++, and +++ mean the compound respectively shows 25-49%; 50-74%; or 75-100% viability to cells)”.
`O=C(CO)N1CCc2sc3c(Cl)c(Cl)cc(-c4cn[nH]c4)c3c2C1` [Compound 51]: in the data set with IFNB, the inhibition at 10 µM lay within 25 to 49% and the inhibition at 30 µM was 75 to 100%. Also, on h-cGAS, the inhibition at 1 µM fell in the range of 0 to 24% and the inhibition at 10 µM was in the range of 25 to 49%. Further, on m-cGAS, the inhibition at 10 µM was in the range of 0 to 24%. In the data set on THP1 cells, the “Cell viability 10 μM” value was “+++ (+, ++, and +++ mean the compound respectively shows 25-49%; 50-74%; or 75-100% viability to cells)”; the “Cell viability 30 μM” value was “+++ (+, ++, and +++ mean the compound respectively shows 25-49%; 50-74%; or 75-100% viability to cells)”.
Take `O=C(CO)N1CCc2sc3c(Cl)c(Cl)cc(-c4ccco4)c3c2C1` [Compound 52]: in the data set with IFNB, the inhibition at 10 µM was in the range of 25 to 49% and the inhibition at 30 µM lay in the range of 75 to 100%. At h-cGAS, the inhibition at 1 µM is 0 to 24% and the inhibition at 10 µM is 50 to 74%. Besides, the inhibition at 10 µM at m-cGAS was in the range of 0 to 24%. In the data set with THP1 cells, the “Cell viability 10 μM” value is “+++ (+, ++, and +++ mean the compound respectively shows 25-49%; 50-74%; or 75-100% viability to cells)”; the “Cell viability 30 μM” value was “+++ (+, ++, and +++ mean the compound respectively shows 25-49%; 50-74%; or 75-100% viability to cells)”.
Regarding `CC(C)(N)C(=O)N1CCc2sc3c(Cl)c(Cl)cc(-c4ccc(N)nc4)c3c2C1` [Compound 56], the inhibition at 10 µM with IFNB was in the range of 75 to 100%; on h-cGAS, 50 to 74%; on m-cGAS it was 0 to 24%. Moreover, in the data set on IFNB, the inhibition at 30 µM is 75 to 100%. Moreover, in the data set on THP1 cells, the “Cell viability 10 μM” value was “+ (+, ++, and +++ mean the compound respectively shows 25-49%; 50-74%; or 75-100% viability to cells)”. In the data set on THP1 cells, the “Cell viability 30 μM” value is given as “− (Cell viability <24%, in THP1 cells is expressed as “−”)”.
With `Nc1ccc(-c2cc(Cl)c(Cl)c3sc4c(c23)CN(C(=O)[C@H]2CCCN2)CC4)cn1` [Compound 57], in the data set on IFNB, the inhibition at 10 µM was 75 to 100% and the inhibition at 30 µM lay in the range of 75 to 100%. Further, the inhibition at 10 µM on h-cGAS lay in the range of 50 to 74%. Also, at m-cGAS, the inhibition at 10 µM was in the range of 0 to 24%. In the data set on THP1 cells, the “Cell viability 10 μM” value is reported as “− (Cell viability <24%, in THP1 cells is expressed as “−”)” and the “Cell viability 30 μM” value is “− (Cell viability <24%, in THP1 cells is expressed as “−”)”.
Turning to `O=C(CO)N1CCc2c(sc3c(Cl)c(Cl)cc(-c4cncnc4)c23)C1` [Compound 65], the inhibition at 10 µM at h-cGAS fell in the range of 25 to 49%. Further, on m-cGAS, the inhibition at 1 µM fell in the range of 0 to 24% and the inhibition at 10 µM fell in the range of 75 to 100%.
As to `O=C(CO)N1CCc2nc3c(Cl)c(Cl)cc(-c4cncnc4)n3c2C1` [Compound 98], the inhibition at 10 µM at h-cGAS and at m-cGAS was 0 to 24% in each case.
For `NCC(=O)N1CCc2nc3c(Cl)c(Cl)cc(-c4cncnc4)n3c2C1` [Compound 100], the inhibition at 10 µM on h-cGAS and at m-cGAS was 0 to 24% in each case.
For the compound `Cn1cc(-c2cc(Cl)c(Cl)c3nc4c(n23)CN(C(=O)CN)CC4)cn1` [Compound 101], the inhibition at 10 µM on h-cGAS and at m-cGAS was 0 to 24% each time.
